Patent publication US20250084040A1, “SUBSTITUTED HETEROCYCLES AS c-MYC TARGETING AGENTS” (Northwestern University, priority 2018, published 2025)

Columns and labels:
NCI 60 cell panel = assay: NCI 60 Cell One-Dose Screen; assay type: cell-based, human; conditions: 1.00E−5 Molar
Experimental: General Description. As of early 2007 all compounds submitted to the NCI 60 Cell screen are tested initially at a single high dose (10^-5 M) in the full NCI 60 cell panel. Only compounds which satisfy pre-determined threshold inhibition criteria in a minimum number of cell lines will progress to the full 5-dose assay. The threshold inhibition criteria for progression to the 5-dose screen was selected to efficiently capture compounds with anti-proliferative activity based on careful analysis of historical DTP screening data. The threshold criteria may be updated as additional data becomes available.
Interpretation of One-Dose Data. The One-dose data will be reported as a mean graph of the percent growth of treated cells and will be similar in appearance to mean graphs from the 5-dose assay. The number reported for the One-dose assay is growth relative to the no-drug control, and relative to the time zero number of cells. This allows detection of both growth inhibition (values between 0 and 100) and lethality (values less than 0). This is the same as for the 5-dose assay, described below. For example, a value of 100 means no growth inhibition. A value of 40 would mean 60% growth inhibition. A value of 0 means no net growth over the course of the experiment. A value of −40 would mean 40% lethality. A value of −100 means all cells are dead. Information from the One-dose mean graph is available for COMPARE analysis.
The human tumor cell lines of the cancer screening panel are grown in RPMI 1640 medium containing 5% fetal bovine serum and 2 mM L-glutamine. For a typical screening experiment, cells are inoculated into 96 well microtiter plates in 100 μL at plating densities ranging from 5,000 to 40,000 cells/well depending on the doubling time of individual cell lines. After cell inoculation, the microtiter plates are incubated at […], 5% CO2, 95% air and 100% relative humidity for 24 h prior to addition of experimental drugs.
After 24 h, two plates of each cell line are fixed in situ with TCA, to represent a measurement of the cell population for each cell line at the time of drug addition (Tz). Experimental drugs are solubilized in dimethyl sulfoxide at 400-fold the desired final maximum test concentration and stored frozen prior to use. At the time of drug addition, an aliquot of frozen concentrate is thawed and diluted to twice the desired final maximum test concentration with complete medium containing 50 µg/ml gentamicin. Additional four, 10-fold or ½ log serial dilutions are made to provide a total of five drug concentrations plus control. Aliquots of 100 μl of these different drug dilutions are added to the appropriate microtiter wells already containing 100 μl of medium, resulting in the required final drug concentrations.
Following drug addition, the plates are incubated for an additional 48 h at 37° C., 5% CO2, 95% air, and 100% relative humidity. For adherent cells, the assay is terminated by the addition of cold TCA. Cells are fixed in situ by the gentle addition of 50 μl of cold 50% (w/v) TCA (final concentration, 10% TCA) and incubated for 60 minutes at 4° C. The supernatant is discarded, and the plates are washed five times with tap water and air dried. Sulforhodamine B (SRB) solution (100 μl) at 0.4% (w/v) in 1% acetic acid is added to each well, and plates are incubated for 10 minutes at room temperature. After staining, unbound dye is removed by washing five times with 1% acetic acid and the plates are air dried. Bound stain is subsequently solubilized with 10 mM trizma base, and the absorbance is read on an automated plate reader at a wavelength of 515 nm. For suspension cells, the methodology is the same except that the assay is terminated by fixing settled cells at the bottom of the wells by gently adding 50 μl of 80% TCA (final concentration, 16% TCA). […]

[1] = In vitro metabolism, mouse liver microsomes; assay type: in vitro ADME; conditions: % remaining of compound after 60 min treatment with mouse liver microsomes
Experimental: In vitro metabolism of NUCC-176242 and NUCC-176248 were tested using mouse liver microsomes and a mouse S9 fraction. (See FIG. 9).

CC(C)CCOc1ccc(-c2cc(C(F)(F)F)n[nH]2)c(O)c1-c1cncc(C#N)c1 [NSC: D-804956/1]
Growth Percent (NCI 60 cell panel; 786-0 (Renal Cancer)): 17.07% | Growth Percent (NCI 60 cell panel; A498 (Renal Cancer)): −25.54% | Growth Percent (NCI 60 cell panel; A549/ATCC (Non-Small Cell Lung Cancer)): 10.39% | Growth Percent (NCI 60 cell panel; ACHN (Renal Cancer)): 8.84% | Growth Percent (NCI 60 cell panel; BT-549 (Breast Cancer)): 6.56% | Growth Percent (NCI 60 cell panel; CAKI-1 (Renal Cancer)): 9.47% | Growth Percent (NCI 60 cell panel; CCRF-CEM (Leukemia)): 6.67% | Growth Percent (NCI 60 cell panel; COLO 205 (Colon Cancer)): 49.05% | Growth Percent (NCI 60 cell panel; DU-145 (Prostate Cancer)): 17.95% | Growth Percent, Delta (NCI 60 cell panel; Delta of the mean graph): 40.88% | Growth Percent (NCI 60 cell panel; EKVX (Non-Small Cell Lung Cancer)): 3.52% | Growth Percent (NCI 60 cell panel; HCC-2998 (Colon Cancer)): 16.23% | Growth Percent (NCI 60 cell panel; HCT-15 (Colon Cancer)): 11.96% | Growth Percent (NCI 60 cell panel; HCT-116 (Colon Cancer)): 2.41% | Growth Percent (NCI 60 cell panel; HL-60(TB) (Leukemia)): 3.64% | Growth Percent (NCI 60 cell panel; HOP-62 (Non-Small Cell Lung Cancer)): 5.79% | Growth Percent (NCI 60 cell panel; HOP-92 (Non-Small Cell Lung Cancer)): −27.95% | Growth Percent (NCI 60 cell panel; HS 578T (Breast Cancer)): 17.96% | Growth Percent (NCI 60 cell panel; HT29 (Colon Cancer)): 48.91% | Growth Percent (NCI 60 cell panel; IGROV1 (Ovarian Cancer)): 46.89% | Growth Percent (NCI 60 cell panel; KM12 (Colon Cancer)): 7.94% | Growth Percent (NCI 60 cell panel; LOX IMVI (Melanoma)): 5.15% | Growth Percent (NCI 60 cell panel; M14 (Melanoma)): 22.46% | Growth Percent (NCI 60 cell panel; MALME-3M (Melanoma)): −0.80% | Growth Percent (NCI 60 cell panel; MCF7 (Breast Cancer)): 2.95% | Growth Percent (NCI 60 cell panel; MDA-MB-231/ATCC (Breast Cancer)): 1.43% | Growth Percent (NCI 60 cell panel; MDA-MB-435 (Melanoma)): 7.91% | Growth Percent (NCI 60 cell panel; MDA-MB-468 (Breast Cancer)): −26.3% | Growth Percent (NCI 60 cell panel; MOLT-4 (Leukemia)): 22.96% | Growth Percent, Mean (NCI 60 cell panel; Mean over the cell panel): 9.05% | Growth Percent (NCI 60 cell panel; NCI-H23 (Non-Small Cell Lung Cancer)): −0.16% | Growth Percent (NCI 60 cell panel; NCI-H322M (Non-Small Cell Lung Cancer)): 12.44% | Growth Percent (NCI 60 cell panel; NCI-H460 (Non-Small Cell Lung Cancer)): 3.48% | Growth Percent (NCI 60 cell panel; NCI-H522 (Non-Small Cell Lung Cancer)): −6.89% | Growth Percent (NCI 60 cell panel; NCI/ADR-RES (Ovarian Cancer)): 2.45% | Growth Percent (NCI 60 cell panel; OVCAR-3 (Ovarian Cancer)): 2.95% | Growth Percent (NCI 60 cell panel; OVCAR-4 (Ovarian Cancer)): 20.48% | Growth Percent (NCI 60 cell panel; OVCAR-5 (Ovarian Cancer)): 36.89% | Growth Percent (NCI 60 cell panel; OVCAR-8 (Ovarian Cancer)): 12.48% | Growth Percent (NCI 60 cell panel; PC-3 (Prostate Cancer)): 1.74% | Growth Percent (NCI 60 cell panel; RPMI-8226 (Leukemia)): −31.83% | Growth Percent, Range (NCI 60 cell panel; Range over the cell panel): 80.88% | Growth Percent (NCI 60 cell panel; SF-268 (CNS Cancer)): 21.93% | Growth Percent (NCI 60 cell panel; SF-295 (CNS Cancer)): 0.83% | Growth Percent (NCI 60 cell panel; SF-539 (CNS Cancer)): 25.17% | Growth Percent (NCI 60 cell panel; SK-MEL-2 (Melanoma)): −13.82% | Growth Percent (NCI 60 cell panel; SK-MEL-28 (Melanoma)): 33.67% | Growth Percent (NCI 60 cell panel; SK-OV-3 (Ovarian Cancer)): −7.94% | Growth Percent (NCI 60 cell panel; SN12C (Renal Cancer)): 3.81% | Growth Percent (NCI 60 cell panel; SNB-19 (CNS Cancer)): 13.09% | Growth Percent (NCI 60 cell panel; SNB-75 (CNS Cancer)): 30.14% | Growth Percent (NCI 60 cell panel; SR (Leukemia)): 33.69% | Growth Percent (NCI 60 cell panel; SW-620 (Colon Cancer)): 14.25% | Growth Percent (NCI 60 cell panel; T-47D (Breast Cancer)): 2.83% | Growth Percent (NCI 60 cell panel; TK-10 (Renal Cancer)): 11.38% | Growth Percent (NCI 60 cell panel; U251 (CNS Cancer)): 2.85% | Growth Percent (NCI 60 cell panel; UACC-62 (Melanoma)): 17.46% | Growth Percent (NCI 60 cell panel; UACC-257 (Melanoma)): −14.05% | Growth Percent (NCI 60 cell panel; UO-31 (Renal Cancer)): 3.89%

Cn1nc(C(F)(F)F)cc1-c1ccc(OCc2ccc(Cl)cc2)c(-c2cc(C(F)(F)F)cc(C(F)(F)F)c2)c1O [NUCC-0196361]
MLM % at 60 min [1]: 72.9%

Oc1c(-c2cc(C(F)(F)F)[nH]n2)ccc(Oc2ccc(Cl)cc2)c1-c1cc(C(F)(F)F)cc(C(F)(F)F)c1 [NUCC-0201223]
MLM % at 60 min [1]: 75.8%

CCCCOc1ccc(-c2cc(C(F)(F)F)n(C)n2)c(O)c1-c1cncc(C(F)(F)F)c1 [NUCC-0201209]
MLM % at 60 min [1]: 10.3%

CCc1c(OCc2ccc(Cl)cc2)ccc(-c2cc(C(F)(F)F)n[nH]2)c1O [NUCC-0200739]
MLM % at 60 min [1]: 46.4%
